According to patent publication EP0061208A1, “Insecticidal control of ectoparasites” (JANSSEN PHARMACEUTICA N.V., priority 1981, dated 1982):

Tested on: lice
Experiment: in-vivo experiment: single pour-on application to louse-infested sheep, evaluation of louse infestation
Design: key: +: numphs or adults were detected; -: no live lice were found
Details: single pour-on along the back, solution 5% by weight in 2-(Z-butoxyethoxy)ethanol; for louse infestation, weeks 1: after 1 week; for louse infestation, weeks 2: after 2 weeks; for louse infestation, weeks 3: after 3 weeks; for louse infestation, weeks 4: after 4 weeks; for louse infestation, weeks 6.5: after 6.5 weeks
Experimental: The efficacy of the ectoparasiticidal method and compositions of the present invention is illustrate by the following in-vivo experiment: • 4 moderately louse-infested sheep were given a single pour-on application of a solution comprising 5% by weight of cypermetrin • in 2-(Z-butoxyethoxy)ethanol. • The louse infestation was evaluated after 1, 2, 3, 4 and 6. 5 weeks. The evaluation of the louse-infestation is illustrated in table 1 wherein • + means that numphs or adults were detected, and • - means that no live lice were found.

SMILES: CC1(C)C(C=C(Cl)Cl)C1C(=O)OC(C#N)c1cccc(Oc2ccccc2)c1 (stereo not shown) [cypermetrin, [[cyano(3-phenoxyphenyl)]methyl] 2-(2,2-dichloroethenyl)-3,3-dimethylcyclopropanecarboxylate]
- louse infestation, weeks 1 (dose 10 mg/kg, 10 mg/kg): + and -
- louse infestation, weeks 2 (dose 10 mg/kg, 10 mg/kg): + and -
- louse infestation, weeks 3 (dose 10 mg/kg, 10 mg/kg): + and -
- louse infestation, weeks 4 (dose 10 mg/kg, 10 mg/kg): + and -
- louse infestation, weeks 6.5 (dose 10 mg/kg): -
- louse infestation, weeks 1 (dose 20 mg/kg): -
- louse infestation, weeks 2 (dose 20 mg/kg): -
- louse infestation, weeks 3 (dose 20 mg/kg): -
- louse infestation, weeks 4 (dose 20 mg/kg): -
- louse infestation, weeks 6.5 (dose 20 mg/kg): -
